Patent US9868736B2, “Deubiquitinase inhibitors and methods for use of the same” (THE REGENTS OF THE UNIVERSITY OF MICHIGAN, priority 2013, dated 2018)
Entries after “also recorded” stand apart in the source; their conditions may differ.

What was measured:
[1] = tested on: murine norovirus, Tulane virus, Listeria monocytogenes, Toxoplasma gondii, Norwalk virus; experiment: inhibition of category A and B pathogens
[2] = tested on: CD34+ cells from normal donors and myeloma cell lines (MM1.S, H929); experiment: apoptosis by annexin V staining (flow cytometry); format: cell-based; conditions: 24 hours
Description: Cellular apoptosis was measured by detection of annexin V on the surface of cells using flow cytometry. Cells were treated with the indicated concentration of G9 for 24 hours before assessing annexin positivity as an indication of […] using duplicate assays derived from duplicate samples. CD34+ cells from two normal donors (left) or two myeloma cell lines (right) were treated with the indicated concentration of G9 for 24 hours before measuring cell survival by annexin V staining (assessed by flow cytometry). Each data point represents the average of 2 samples assayed in duplicate and presented as the average+/−S.D. for each G9 concentration.

[3] = plasma level in mice after IV, PO or IP administration (LC/MS); format: in vivo, Balb/c mice; conditions: for concentration at 0.5 h / concentration at 2 h / concentration at 4 h / concentration at 7 h / AUC(0-t) / half-life: Balb/c, mouse, plasma
Description: To determine whether G9 or 067 had anti-tumor activity in animals, we first assessed their properties in mice when introduced intravenously (IV) or by oral gavage (PO). G9 or 067 was administered once to two mice per group at the indicated dosage level and route (IV or PO) and plasma was collected at the time point indicated after administration. Compound concentration in the plasma was measured by high performance liquid chromatography coupled with mass spectroscopy detection (LC/MS).
Balb/c mice were treated with either 067 or G9 dissolved in dimethyl sulfoxide: polyethylene glycol 300 (1:1) and administered as indicated. The level of each compound in the plasma of each mouse at the time point indicated is shown in the line graph. The area under the curve (AUC) was calculated and tabulated below each line graph. […] The level of each compound in the plasma of each mouse at the time point indicated is shown Table 2. Several pharmacokinetic parameters were also calculated. […] The half-life of G9 was similar to 067 when administered by IP injection (30-60 min). Based on these assessments, G9 was further evaluated for anti-tumor activity in mice.

[4] = tested on: Sindbis virus, Tulane virus, LaCrosse virus, Norwalk virus replicon; experiment: antiviral screen against a variety of viruses; format: cell-based; conditions: Vero (Sindbis), LLC-MK (Tulane), Be2-c (LaCrosse), Norwalk virus replicon-containing cells, FIG. 9
[5] = intravenous, 10 mg/kg, IV1 10 mg/kg
[6] = intravenous, 10 mg/kg, IV2 10 mg/kg

For `CCCC(NC(=O)/C(C#N)=C/c1nc(Cl)ccc1Cl)c1ccc(OCCN2CCOCC2)cc1` (centres unmarked) [Compound G9, (E)-2-Cyano-3-(3,6-dichloropyridin-2-yl)-N-(1-(4-(2-morpholinoethoxy)phenyl)butyl)acrylamide], the “inhibition of category A and B pathogens and related family members” value [1] was “potent inhibitor”, the “apoptotic sensitivity of myeloma tumor cells versus normal CD34+ cells” value [2] was “more apoptotically sensitive to G9 than normal CD34+ cells” and the “effectiveness in inducing apoptosis, tumor (myeloma) versus normal CD34+ cells” value [2] was roughly 10 fold. The concentration at 0.5 h [3, 5] was 1880 ng/mL, the concentration at 2 h [3, 5] was 395 ng/mL and the concentration at 4 h [3, 5] was 126 ng/mL. It also gave a concentration at 7 h [3, 5] of 38.6 ng/mL, a concentration at 0.5 h [3, 6] of 1220 ng/mL and a concentration at 2 h [3, 6] of 520 ng/mL. It also gave a concentration at 4 h [3, 6] of 289 ng/mL, a concentration at 7 h [3, 6] of 208 ng/mL and an AUC(0-t) ([3]; iv, 10 mg/kg, IV1 10 mg/kg) of 3730 ng·h/mL. It also gave an AUC(0-t) ([3]; iv, 10 mg/kg, IV2 10 mg/kg) of 3570 ng·h/mL, a concentration at 0.5 h ([3]; oral, 30 mg/kg, PO1 30 mg/kg) of 60.8 ng/mL and a concentration at 2 h ([3]; oral, 30 mg/kg, PO1 30 mg/kg) of 35.8 ng/mL. The concentration at 4 h ([3]; oral, 30 mg/kg, PO1 30 mg/kg) was 44.5 ng/mL, the concentration at 7 h ([3]; oral, 30 mg/kg, PO1 30 mg/kg) was 37.6 ng/mL and the concentration at 0.5 h ([3]; oral, 30 mg/kg, PO2 30 mg/kg) was 78.7 ng/mL. It also gave a concentration at 2 h ([3]; oral, 30 mg/kg, PO2 30 mg/kg) of 59 ng/mL, a concentration at 4 h ([3]; oral, 30 mg/kg, PO2 30 mg/kg) of 57.1 ng/mL and a concentration at 7 h ([3]; oral, 30 mg/kg, PO2 30 mg/kg) of 16.1 ng/mL. The AUC(0-t) ([3]; po, 30 mg/kg, PO1 30 mg/kg) was 291 ng·h/mL, the AUC(0-t) ([3]; po, 30 mg/kg, PO2 30 mg/kg) was 349 ng·h/mL and the half-life ([3]; mice, IP injection) was 0.5 to 1 h. For the same compound, the half-life ([3]; mice, IV or PO study of Table 2) was 1.5 to 2 h, the “bio-availability following IV administration” value ([3]; mice, IV) was “bio-available following IV administration” and the “peak plasma levels, G9 compared with 067” value ([3]; mice, IV) was “higher peak levels”. For the same compound, the oral bio-availability ([3]; mice, PO) was “poor oral bio-availability” and the “antiviral activity against a variety of viruses” value [4] was “mild to high antiviral activity; also recorded: antiviral activity against Sindbis virus and La Crosse virus”.
